Laboratory results as given in patent US9357778B2, “N-acyl-2-(cyclo)alkypyrrolidines and piperidines useful as fungicides” (BAYER CROPSCIENCE AG, priority 2012, dated 2016).

How the values were obtained:
[1] = log P by HPLC on reversed-phase column (C 18), EEC Directive 79/831 Annex V.A8; assay type: physicochemical; settings: 40° C., 0.1% aqueous formic acid and acetonitrile
Protocol: In table 1, the log P values were determined in accordance with EEC Directive 79/831 Annex V.A8 by HPLC (High Performance Liquid Chromatography) on a reversed-phase column (C 18), using the method described below: Temperature: 40° C.; Mobile phases: 0.1% aqueous formic acid and acetonitrile; linear gradient from 10% acetonitrile to 90% acetonitrile. Calibration was carried out using unbranched alkan-2-ones (comprising 3 to 16 carbon atoms) with known log P values (determination of the log P values by the retention times using linear interpolation between two successive alkanones). lambda-max-values were determined using UV-spectra from 200 nm to 400 nm and the peak values of the chromatographic signals.

Pyrenophora teres = assay: In vivo preventive test on Pyrenophora teres (barley); settings: 500 ppm of active ingredient, evaluated 7-9 days after inoculation
Protocol: In Vivo Preventive Test on Pyrenophora teres (Barley) • Solvent: 49 parts by weight of N,N-dimethylformamide • Emulsifier: 1 part by weight of alkylaryl polyglycol ether To produce a suitable preparation of active compound, 1 part by weight of active compound is mixed with the stated amounts of solvent and emulsifier, and the concentrate is diluted with water to the desired concentration. To test for preventive activity, young plants are sprayed with the preparation of active compound at the stated rate of application. One day after this treatment, the plants are inoculated with an aqueous spore suspension of Pyrenophora teres. The plants remain for 48 hours in an incubation cabinet at 22° C. and a relative atmospheric humidity of 100%. Then the plants are placed in a greenhouse at a temperature of approximately 20° C. and a relative atmospheric humidity of approximately 80%. The test is evaluated 7-9 days after the inoculation. 0% means an efficacy which corresponds to that of the untreated control while an efficacy of 100% means that no disease is observed.

Alternaria solani = assay: In vivo preventive test on Alternaria solani (tomato); settings: evaluated 7 days after inoculation
Protocol: In Vivo Preventive Test on Alternaria solani (Tomato) • Solvent: 49 parts by weight of N,N-dimethylformamide • Emulsifier: 1 part by weight of alkylarylpolyglycolether To produce a suitable preparation of active compound, 1 part by weight of active compound is mixed with the stated amounts of solvent and emulsifier, and the concentrate is diluted with water to the desired concentration. To test for preventive activity, young plants are sprayed with the preparation of active compound at the stated rate of application. One day after this treatment, the plants are inoculated with an aqueous spore suspension of Alternaria solani. The plants remain for one day in an incubation cabinet at approximately 22° C. and a relative atmospheric humidity of 100%. Then the plants are placed in an incubation cabinet at approximately 20° C. and a relative atmospheric humidity of 96%. The test is evaluated 7 days after the inoculation. 0% means an efficacy which corresponds to that of the untreated control while an efficacy of 100% means that no disease is observed.

Sphaerotheca fuliginea = assay: In vivo preventive test on Sphaerotheca fuliginea (cucumber); settings: 500 ppm of active ingredient, evaluated 7 days after inoculation
Protocol: In Vivo Preventive Test on Sphaerotheca Fulicinea (Cucumber) • Solvent: 49 parts by weight of N,N-dimethylformamide • Emulsifier: 1 part by weight of alkylarylpolyglycolether To produce a suitable preparation of active compound, 1 part by weight of active compound is mixed with the stated amounts of solvent and emulsifier, and the concentrate is diluted with water to the desired concentration. To test for preventive activity, young plants are sprayed with the preparation of active compound at the stated rate of application. One day after this treatment, the plants are inoculated with an aqueous spore suspension of Sphaerotheca fuliginea. Then the plants are placed in a greenhouse at approximately 23° C. and a relative atmospheric humidity of approximately 70%. The test is evaluated 7 days after the inoculation. 0% means an efficacy which corresponds to that of the untreated control, while an efficacy of 100% means that no disease is observed.

Leptosphaeria nodorum = assay: In vivo preventive test on Leptosphaeria nodorum (wheat); settings: 500 ppm of active ingredient, evaluated 8 days after inoculation
Protocol: In Vivo Preventive Test on Leptosphaeria nodorum (Wheat) • Solvent: 49 parts by weight of N,N-dimethylacetamide • Emulsifier: 1 part by weight of alkylaryl polyglycol ether To produce a suitable preparation of active compound, 1 part by weight of active compound or active compound combination is mixed with the stated amounts of solvent and emulsifier, and the concentrate is diluted with water to the desired concentration. To test for preventive activity, young plants are sprayed with the preparation of active compound or active compound combination at the stated rate of application. After the spray coating has been dried, the plants are sprayed with a spore suspension of Leptosphaeria nodorum. The plants remain for 48 hours in an incubation cabinet at approximately 20° C. and a relative atmospheric humidity of approximately 100%. The plants are placed in the greenhouse at a temperature of approximately 22° C. and a relative atmospheric humidity of approximately 80%. The test is evaluated 8 days after the inoculation. 0% means an efficacy which corresponds to that of the untreated control, while an efficacy of 100% means that no disease is observed.

Cn1nc(C(F)F)c(C(=O)N2CCCC2C(F)(F)F)c1Cl (centres unmarked) [Example 1]
logP [1]: 2.39 | Efficacy (Pyrenophora teres): 100%

Cn1nc(C(F)F)c(C(=O)N2CCCC2C(F)(F)F)c1F (centres unmarked) [Example 2]
logP [1]: 2.25 | Efficacy (Pyrenophora teres): 100%

CCCCCCC1CCCN1C(=O)c1cn(C)nc1C(F)F (centres unmarked) [Example 6]
logP [1]: 3.37 | Efficacy (Pyrenophora teres): 95% | Efficacy (Alternaria solani; 500 ppm of active ingredient): 94%

CCCCCCC1CCCN1C(=O)c1c(C(F)F)nn(C)c1Cl (centres unmarked) [Example 7]
logP [1]: 3.94 | Efficacy (Pyrenophora teres): 100% | Efficacy (Alternaria solani; 500 ppm of active ingredient): 94%

Cn1cc(C(=O)N2CCCC2C2CCCCC2)c(C(F)F)n1 (centres unmarked) [Example 9]
logP [1]: 2.88 | Efficacy (Pyrenophora teres): 100% | Efficacy (Sphaerotheca fuliginea): 95% | Efficacy (Alternaria solani; 500 ppm of active ingredient): 89%

Cn1cc(C(=O)N2CCCC2C23CC4CC(CC(C4)C2)C3)c(C(F)F)n1 (centres unmarked) [Example 12]
logP [1]: 3.89 | Efficacy (Pyrenophora teres): 100% | Efficacy (Alternaria solani; 100 ppm of active ingredient): 89% | Efficacy (Alternaria solani; 500 ppm of active ingredient): 94%

Cn1nc(C(F)F)c(C(=O)N2CCCC2C23CC4CC(CC(C4)C2)C3)c1Cl (centres unmarked) [Example 13]
logP [1]: 4.67 | Efficacy (Pyrenophora teres): 100% | Efficacy (Alternaria solani; 500 ppm of active ingredient): 94%

Cn1nc(C(F)F)c(C(=O)N2CCCC2CC2CCCCC2)c1Cl (centres unmarked) [Example 16]
logP [1]: 3.89 | Efficacy (Leptosphaeria nodorum): 70% | Efficacy (Pyrenophora teres): 100% | Efficacy (Alternaria solani; 500 ppm of active ingredient): 94%

Cn1nc(C(F)F)c(C(=O)N2CCCCC2C(F)(F)F)c1Cl (centres unmarked) [Example 18]
logP [1]: 2.80 | Efficacy (Pyrenophora teres): 89%

Cn1nc(C(F)F)c(C(=O)N2CCCCC2C(F)(F)F)c1F (centres unmarked) [Example 19]
logP [1]: 2.63 | Efficacy (Pyrenophora teres): 94%

CCCCCCC1CCCCN1C(=O)c1cn(C)nc1C(F)F (centres unmarked) [Example 20]
logP [1]: 3.71 | Efficacy (Pyrenophora teres): 100% | Efficacy (Alternaria solani; 100 ppm of active ingredient): 94% | Efficacy (Alternaria solani; 500 ppm of active ingredient): 100%

CCCCCCC1CCCCN1C(=O)c1c(C(F)F)nn(C)c1Cl (centres unmarked) [Example 21]
logP [1]: 4.39 | Efficacy (Pyrenophora teres): 100% | Efficacy (Alternaria solani; 500 ppm of active ingredient): 100%

CCCCCCC1CCCCN1C(=O)c1c(C(F)F)nn(C)c1F (centres unmarked) [Example 22]
logP [1]: 4.18 | Efficacy (Pyrenophora teres): 100% | Efficacy (Alternaria solani; 500 ppm of active ingredient): 100%

Cn1nc(C(F)F)c(C(=O)N2CCCCC2C2CCCCC2)c1Cl (centres unmarked) [Example 23]
logP [1]: 3.85 | Efficacy (Pyrenophora teres): 100% | Efficacy (Alternaria solani; 500 ppm of active ingredient): 88%

CCCOCCC1CCCCN1C(=O)c1cn(C)nc1C(F)F (centres unmarked) [Example 27]
logP [1]: 2.39

CCCOCCC1CCCCN1C(=O)c1c(C(F)F)nn(C)c1Cl (centres unmarked) [Example 28]
logP [1]: 2.90

CCCOCCC1CCCCN1C(=O)c1c(C(F)F)nn(C)c1F (centres unmarked) [Example 29]
logP [1]: 2.73 | Efficacy (Pyrenophora teres): 100% | Efficacy (Alternaria solani; 500 ppm of active ingredient): 94%

CCCCOCCC1CCCCN1C(=O)c1cn(C)nc1C(F)F (centres unmarked) [Example 30]
logP [1]: 2.80 | Efficacy (Pyrenophora teres): 95% | Efficacy (Alternaria solani; 500 ppm of active ingredient): 89%

CCCCOCCC1CCCCN1C(=O)c1c(C(F)F)nn(C)c1Cl (centres unmarked) [Example 31]
logP [1]: 3.35 | Efficacy (Pyrenophora teres): 90% | Efficacy (Alternaria solani; 500 ppm of active ingredient): 89%

CCCCOCCC1CCCCN1C(=O)c1c(C(F)F)nn(C)c1F (centres unmarked) [Example 32]
logP [1]: 3.19 | Efficacy (Pyrenophora teres): 100% | Efficacy (Alternaria solani; 500 ppm of active ingredient): 94%

Cn1cc(C(=O)N2CCCCC2CCOCC2CC2)c(C(F)F)n1 (centres unmarked) [Example 33]
logP [1]: 2.32 | Efficacy (Pyrenophora teres): 94%

Cn1nc(C(F)F)c(C(=O)N2CCCCC2CCOCC2CC2)c1Cl (centres unmarked) [Example 34]
logP [1]: 2.82 | Efficacy (Pyrenophora teres): 94%

Cn1nc(C(F)F)c(C(=O)N2CCCCC2CCOCC2CC2)c1F (centres unmarked) [Example 35]
logP [1]: 2.66 | Efficacy (Pyrenophora teres): 94% | Efficacy (Alternaria solani; 500 ppm of active ingredient): 94%

Cn1nc(C(F)F)c(C(=O)N2CCCCC2CCOCC2CCC2)c1Cl (centres unmarked) [Example 36]
logP [1]: 3.51 | Efficacy (Pyrenophora teres): 78% | Efficacy (Alternaria solani; 500 ppm of active ingredient): 88%

Cn1nc(C(F)F)c(C(=O)N2CCCCC2CCOCC2CCC2)c1F (centres unmarked) [Example 37]
logP [1]: 3.33 | Efficacy (Pyrenophora teres): 94% | Efficacy (Alternaria solani; 500 ppm of active ingredient): 94%

Cn1cc(C(=O)N2CCCCC2CCOCC2CCC2)c(C(F)F)n1 (centres unmarked) [Example 38]
logP [1]: 2.92 | Efficacy (Pyrenophora teres): 89%

COCCCOCCC1CCCCN1C(=O)c1c(C(F)F)nn(C)c1Cl (centres unmarked) [Example 39]
logP [1]: 2.39

COCCCOCCC1CCCCN1C(=O)c1c(C(F)F)nn(C)c1F (centres unmarked) [Example 40]
logP [1]: 2.25 | Efficacy (Pyrenophora teres): 95% | Efficacy (Alternaria solani; 500 ppm of active ingredient): 94%

COCCCOCCC1CCCCN1C(=O)c1cn(C)nc1C(F)F (centres unmarked) [Example 41]
logP [1]: 1.96 | Efficacy (Pyrenophora teres): 70%

Cn1cc(C(=O)N2CCCCC2CCOCCC2CCCCC2)c(C(F)F)n1 (centres unmarked) [Example 42]
logP [1]: 4.23 | Efficacy (Pyrenophora teres): 95% | Efficacy (Alternaria solani; 500 ppm of active ingredient): 78%

Cn1nc(C(F)F)c(C(=O)N2CCCCC2CCOCCC2CCCCC2)c1Cl (centres unmarked) [Example 43]
logP [1]: 4.87 | Efficacy (Pyrenophora teres): 90%

Cn1nc(C(F)F)c(C(=O)N2CCCCC2CCOCCC2CCCCC2)c1F (centres unmarked) [Example 44]
logP [1]: 4.67 | Efficacy (Pyrenophora teres): 100% | Efficacy (Alternaria solani; 500 ppm of active ingredient): 89%

COCCCC1CCCCN1C(=O)c1cn(C)nc1C(F)F (centres unmarked) [Example 45]
logP [1]: 1.88

COCCCC1CCCCN1C(=O)c1c(C(F)F)nn(C)c1Cl (centres unmarked) [Example 46]
logP [1]: 2.33

COCCCC1CCCCN1C(=O)c1c(C(F)F)nn(C)c1F (centres unmarked) [Example 47]
logP [1]: 2.18 | Efficacy (Pyrenophora teres): 100% | Efficacy (Alternaria solani; 500 ppm of active ingredient): 89%

Cn1nc(C(F)F)c(C(=O)N2CCCC2CC2CC3CCC2C3)c1Cl (centres unmarked) [Example 50]
logP [1]: 3.99 | Efficacy (Pyrenophora teres): 100% | Efficacy (Alternaria solani; 500 ppm of active ingredient): 88%

Cn1nc(C(F)F)c(C(=S)N2CCCC2CC2CCCCC2)c1F (centres unmarked) [Example 51]
logP [1]: 3.96

Cn1nc(C(F)F)c(C(=S)N2CCCC2C23CC4CC(CC(C4)C2)C3)c1F (centres unmarked) [Example 52]
logP [1]: 4.51
